Laboratory results taken from patent publication US20090149484A1, “QUINAZOLIN-4-ONE DERIVATIVES, PROCESS FOR THEIR PREPARATION AND PHARMACEUTICAL COMPOSITIONS CONTAINING THEM” (ASTRAZENECA AB, priority 2006, published 2009).

The molecules below were run against T1, His-tagged Mutant B-Raf (V600E) enzyme (MT B-Raf) (Homo sapiens, UniProt P15056, V600E) (assay: B-Raf in-vitro AlphaScreen assay). Details: phosphorylation of biotinylated HIS-MEK-AVI, 0.12 nM MT B-Raf, 24 μM ATP in mix.
T1 construct: purified full length His-tagged Mutant B-Raf (V600E) enzyme; made in house; host or cells: insect cells
T1 sequence (P15056 whole entry V600E): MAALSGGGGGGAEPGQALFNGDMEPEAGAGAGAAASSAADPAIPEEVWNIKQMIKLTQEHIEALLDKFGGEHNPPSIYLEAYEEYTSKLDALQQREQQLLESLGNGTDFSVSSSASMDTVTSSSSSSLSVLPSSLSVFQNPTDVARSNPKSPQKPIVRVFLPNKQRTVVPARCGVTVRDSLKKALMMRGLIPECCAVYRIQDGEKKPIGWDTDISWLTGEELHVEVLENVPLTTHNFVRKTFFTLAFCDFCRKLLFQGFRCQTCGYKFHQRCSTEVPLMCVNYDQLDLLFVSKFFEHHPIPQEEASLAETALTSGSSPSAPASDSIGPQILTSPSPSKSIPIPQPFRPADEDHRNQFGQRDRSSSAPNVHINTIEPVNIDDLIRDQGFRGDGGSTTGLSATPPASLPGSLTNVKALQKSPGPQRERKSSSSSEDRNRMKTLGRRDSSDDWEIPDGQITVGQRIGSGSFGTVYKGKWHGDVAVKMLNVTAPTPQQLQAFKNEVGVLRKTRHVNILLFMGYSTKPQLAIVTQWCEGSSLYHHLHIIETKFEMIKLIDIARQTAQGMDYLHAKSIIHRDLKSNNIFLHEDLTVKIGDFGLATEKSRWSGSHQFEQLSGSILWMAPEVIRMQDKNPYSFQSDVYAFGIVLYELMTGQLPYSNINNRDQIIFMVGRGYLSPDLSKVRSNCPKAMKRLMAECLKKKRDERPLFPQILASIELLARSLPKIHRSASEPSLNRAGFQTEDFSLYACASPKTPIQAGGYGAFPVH
Format: biochemical
Experimental: B-Raf in-Vitro AlphaScreen Assay
Activity of purified full length His-tagged Mutant B-Raf (V600E) enzyme (MT B-Raf) was determined in-vitro using an Amplified Luminescent Proximity Homogeneous Assay (ALPHA)(Perkin Elmer, Mass.), which measures phosphorylation of the MT B-Raf substrate, biotinylated HIS-MEK-AVI (PLAZA internal database, construct #pAZB0141), as described below. MT B-Raf was expressed in insect cells and affinity purified by Ni^+2 agarose followed by Q-Sepharose chromatography. Typical yield was 1.08 mg/ml at >90% purity. The phosphorylation of the MT B-Raf substrate in the presence and absence of the compound of interest was determined. Briefly, 5 μl of enzyme/substrate/adenosine triphosphate (ATP) mix consisting of 0.12 nM MT B-Raf, 84 nM biotinylated HIS-MEK-AVI, and 24 μM ATP in 1.2× buffer was preincubated with 2 ul of compound for 20 minutes at 25° C. Reactions were initiated with 5 μl of Metal mix consisting of 24 mM MgCl2 in 1.2× buffer and incubated at 25° C. for 60 minutes and reactions were stopped by addition of 5 μl of Detection mix consisting of 20 mM HEPES, 102 mM ethylenediamine tetraacetic acid, 1.65 mg/ml BSA, 136 mM NaCl, 3.4 nM Phospho-MEK1/2 (Ser217/221) antibody (Catalog #9121, Cell Signaling Technology, MA), 40 μg/ml Streptavidin donor beads (Perkin Elmer, MA, Catalog #6760002), and 40 μg/ml Protein A acceptor beads (Perkin Elmer, MA, Catalog #6760137). Plates were incubated at 25° C. for 18 hours in the dark. Phosphorylated substrate was detected by an EnVision plate reader (Perkin Elmer, MA) 680 nm excitation, 520-620 nm emission. Data was graphed and IC50s calculated using Excel Fit (Microsoft).
`Cn1cnc2ccc(Oc3ccc(NC(=O)Nc4ccc(Cl)c(C(F)(F)F)c4)cc3)cc2c1=O` [Example 1, N-[4-Chloro-3-(trifluoromethyl)phenyl]-N′-{-4-[(3-methyl-4-oxo-3,4-dihydroquinazolin-6-yl)oxy]phenyl}urea] was tested, and the IC50 was 287 nM. Work on `Cc1cc(NC(=O)Nc2ccc(Cl)c(C(F)(F)F)c2)ccc1Oc1ccc2ncn(C)c(=O)c2c1` [Example 3, N-[4-Chloro-3-(trifluoromethyl)phenyl]-N′-{3-methyl-4-[(3-methyl-4-oxo-3,4-dihydroquinazolin-6-yl)oxy]phenyl}urea] yielded an IC50 of 205 nM. In the case of `Cn1cnc2ccc(Oc3ccc(NC(=O)Nc4cccc(C(F)(F)F)c4F)cc3)cc2c1=O` [Example 7, N-[2-Fluoro-3-(trifluoromethyl)phenyl]-N′-{4-[(3-methyl-4-oxo-3,4-dihydroquinazolin-6-yl)oxy]phenyl}urea], the IC50 is reported as 340 nM.
